This note sets out measurements from the supplement of paper PMC5412046.

Usually viability stands for a read-out of living cells in per cent, often relative to untreated cells.

Where a name gives a salt, the structure may show the parent alone.

Experiment [1] concerns SB.mhdgc-1. In words: viability at highest tested concentration (MAXR) relative to DMSO; higher = less cytotoxic. The conditions noted are these: SB.mhdgc-1 (hereditary c.1380delA CDH1 gastric cancer). The procedure, abridged: (§1)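 Hereditary or sporadic patient-derived gastric cancer cells (500 cells in 5 μL medium per 1536 well) received 23 nL compound in DMSO by pintool at 11 threefold-diluted concentrations, with the top concentration recorded per compound. After 48 h, CellTiter-Glo was added for 30 min at room temperature and luminescence read on a ViewLux. Values are DMSO-normalised viability, either at the highest concentration or as trapezoidal area under the curve.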

The test system of experiment [2] is SB.msgc-1. The description is as above. The conditions noted are these: SB.msgc-1 (sporadic gastric cancer). The procedure, abridged:
as §1

Experiment [3] concerns SB.mhdgc-1. The experiment in a line: area under the dose-response curve of % viability (trapezoidal, 11 doses) (% viability x log10 concentration); higher = less cytotoxic. The conditions noted are these: SB.mhdgc-1 (hereditary c.1380delA CDH1 gastric cancer). An outline of the steps: as §1
The test system of experiment [4] is SB.msgc-1. The description is as above. The conditions noted are these: SB.msgc-1 (sporadic gastric cancer). The procedure, abridged: as §1

In the case of `Cc1cc(SCc2sc(-c3ccc(C(F)(F)F)cc3)nc2C)ccc1OCC(=O)O` (top concentration 46.0829 µM), the viability in experiment [1] is 111%; in experiment [2], 50.9%. The “area under the dose-response curve” value was 590 in experiment [3] and 271 in experiment [4].
Turning to `C[C@]12COC(=O)C[C@@H]1CC[C@@H]1[C@@H]2CC[C@@]2(C)[C@H]1CC[C@]2(C)O` [Oxandrolone] (top concentration 46.0829 µM), the figures for the viability in experiment [1] and in experiment [2] were 85.3% and 102%, respectively. Also, the “area under the dose-response curve” value in experiment [3] and in experiment [4] was 542 throughout.
As for `O=C(O)/C=C/c1ccc(Cn2ccnc2)cc1` [Ozagrel hydrochloride] (top concentration 46.0829 µM), the viability in experiment [1] worked out at 118%; in experiment [2], 113%. Besides, the entries for the “area under the dose-response curve” value in experiment [3] and in experiment [4] were 585 and 546, respectively.
As for `COc1ccc2cc1Oc1ccc(cc1)C[C@H]1c3cc(c(OC)cc3CCN1C)Oc1c(OC)c(OC)cc3c1[C@H](C2)N(C)CC3` [Tetrandrine] (top concentration 46.0829 µM), the viability worked out at 57.7% in experiment [1] and 48.5% in experiment [2]. Moreover, the results for the “area under the dose-response curve” value in experiment [3] and in experiment [4] were 538 and 507, respectively.
As to `N[C@@H](C(=O)N[C@H]1[C@H]2SC\C(=C(/N2C1=O)C(O)=O)Cl)C3=CC=CC=C3` [Cefaclor] (top concentration 46.0829 µM), the viability stood at 169% in experiment [1] and 112% in experiment [2]. The “area under the dose-response curve” value is 430 in experiment [3] and 545 in experiment [4].
The corresponding values for `CC(=O)Oc1ccccc1C(=O)O` [Aspirin] (top concentration 46.0829 µM) are 11.5%, 10.1%, 541 and 287.
As for `C[C@@]12C(=O)OC(=O)[C@@]1(C)C1CCC2O1` [Cantharidin] (top concentration 46.0829 µM), the viability in experiment [1] is 6.58%; in experiment [2], 18%. Moreover, the results for the “area under the dose-response curve” value in experiment [3] and in experiment [4] were 394 and 444, respectively.
In the case of `COc1ccc2c(c1)CC[C@@H](CN(C)CC(=O)O)[C@H]2c1ccccc1` (top concentration 46.0829 µM), the viability turned out to be 55.3% in experiment [1] and 33.9% in experiment [2]. In addition, the “area under the dose-response curve” value in experiment [3] was found to be 459; in experiment [4], 474.
With `Cc1ccc(-n2nc(C(C)(C)C)cc2NC(=O)Nc2ccc(OCCN3CCOCC3)c3ccccc23)cc1` [Doramapimod] (top concentration 46.0829 µM), the viability was determined as 21.9% in experiment [1] and 48% in experiment [2]. The “area under the dose-response curve” value in experiment [3] was found to be 488; in experiment [4] it was 508.
Take `CCc1cc(/C(C)=N/OCc2ccc(C3CCCCC3)c(C(F)(F)F)c2)ccc1CN1CC(C(=O)O)C1` [BAF-312] (top concentration 46.0829 µM): the values for the viability in experiment [1] and in experiment [2] were 72.5% and 51.4%, respectively. Besides, the figures for the “area under the dose-response curve” value in experiment [3] and in experiment [4] were 535 and 465, respectively.
In the same order, the values of `COc1ccc2c(OCc3nnc4ccc(-c5ccccc5)nn34)ccnc2c1` [AMG-208] (top concentration 46.0829 µM) are 100%, 97.7%, 558 and 527.
For `C[N]1C=C(C=N1)C2=C3\C=N/NC(=O)C4=C3C(=CC(=C4)NC(=O)[C@H](N)C5CCCCC5)[NH]2` (top concentration 46.0829 µM), the viability in experiment [1] turned out to be 27.3%; in experiment [2] it was 46.3%. In addition, the “area under the dose-response curve” value in experiment [3] was determined as 381; in experiment [4], 444.
Consider `COc1cccc2c1CCCC2CCCN1CCN(C2CCCCC2)CC1` (stereo not given) [PB-28] (top concentration 46.0829 µM), for which the viability in experiment [1] is 9.75%; in experiment [2], 60.2%. The “area under the dose-response curve” value in experiment [3] was found to be 482; in experiment [4] it was 529.
On to `C[S+]([O-])c1ccc(-c2nc(-c3ccc(F)cc3)c(-c3ccncc3)[nH]2)cc1` (stereo not given) (top concentration 92.1659 µM), for which the viability in experiment [1] worked out at 51.8%; in experiment [2], 30.8%. Further, the figures for the “area under the dose-response curve” value in experiment [3] and in experiment [4] were 557 and 466, respectively.
In the case of `Cc1cnc(Nc2ccc(OCCN3CCCC3)cc2)nc1Nc1cccc([S+](=O)([O-])NC(C)(C)C)c1` (top concentration 46.0829 µM), the figures for the viability in experiment [1] and in experiment [2] were 10.5% and 106%, respectively. The “area under the dose-response curve” value in experiment [3] was found to be 385; in experiment [4], 436.
Take `FC(F)(F)c1ccc(Nc2nc3cc(Oc4ccnc(-c5ncc(C(F)(F)F)[nH]5)c4)ccc3[nH]2)cc1` [RAF-265 derivative] (top concentration 46.0829 µM): the figures for the viability in experiment [1] and in experiment [2] were 60.5% and 29.6%, respectively. Besides, the figures for the “area under the dose-response curve” value in experiment [3] and in experiment [4] were 476 and 436, respectively.
Consider `C1Cc2[nH]nc(-c3nn[nH]n3)c2C1` [MK-0354] (top concentration 46.0829 µM), for which the viability in experiment [1] stood at 98.4%; in experiment [2] it was 112%. Also, the results for the “area under the dose-response curve” value in experiment [3] and in experiment [4] were 450 and 499, respectively.
In the case of `O=C(Nc1nc2ccccc2n1CCN1CCOCC1)c1cccc([N+](=O)[O-])c1` (top concentration 46.0829 µM), the viability in experiment [1] was determined as 2.91%; in experiment [2] it was 32.7%. Besides, the results for the “area under the dose-response curve” value in experiment [3] and in experiment [4] were 441 and 476, respectively.
For `CC(C)C[C@H](NC(=O)[C@@H](O)[C@H](N)Cc1ccccc1)C(=O)O` [Ubenimex] (top concentration 46.0829 µM), the viability in experiment [1] worked out at 19.7%; in experiment [2], 88.5%. Besides, the “area under the dose-response curve” value in experiment [3] turned out to be 528; in experiment [4], 602.
The corresponding values for `Clc1ccc(COC(Cn2ccnc2)c2ccc(Cl)cc2Cl)cc1` (stereo not given) [Econazole nitrate] (top concentration 46.0829 µM) are 77.1%, 64.3%, 552 and 514.
